In patent publication US8138304B2, “Neural regeneration peptides and formulations thereof” (Neuren Pharmaceuticals Limited, priority 2005, dated 2012):
Where no end group is shown, it is not given here.

Assays:
[1] = test system: JAr cells; assay: TNF-alpha-induced cytotoxicity in immortalized trophoblast cell line; format: cell-based, human; settings: EGF 5 ng/ml
Protocol: Choriocarcinoma cells (Jeg-3, BeWo and Jar; ATCC) were cultured under similar conditions in DMEM/F-12 cell culture medium in 75 cm2 flasks with filter tops (Raylab). Cells were allowed to adhere and grow in an incubator equilibrated in 95%/5% air/CO2 to approximately 70% confluence, before being split every 2 to 3 days by addition of 2 ml of 1× concentrated trypsin-EDTA. After a centrifugation step for 5 min at 1100 rpm, cells were resuspended in 15 ml of fresh DMEM/F-12 in sterile tissue flasks and placed back in the incubator.
In this study, we plated 50,000 JAr cells per well. JAr cells are an immortalized line of cells derived from a human choriocarcinoma cells. Wells were pre-incubated with NRP-5RG D6A (SEQ ID NO: 1) at the concentrations indicated in FIG. 12, or epidermal growth factor (EGF; 5 ng/ml) for 2 hours. Subsequently, cells were exposed to the cultures for 48 hours to TNF-alpha (5 ng/ml) and interferon-gamma (5 ng/ml) to induce stress.

[2] = test system: primary human trophoblasts; assay: Trophoblast proliferation assay (BrdU incorporation); format: cell-based; settings: EGF 0.8×10^−9 M; 24 hrs; BrdU
Protocol: Cell proliferation was determined by BrdU incorporation to examine the effects of NRP-5RG D6A on the proliferation of trophoblasts. EGF (0.8×10^−9 M) was used as a positive control, since studies have previously shown it plays a role in enhancing trophoblast proliferation (Maruo et al., 1992).
Initially cells were treated with NRP-5RG D6A (SEQ ID NO: 1), EGF and BrdU (0.05 μM) for 72 hrs. After the first 24 hrs, an 80% media change was carried out since BrdU is toxic over long incubation periods. Following 72 hrs of incubation, the reaction was stopped by fixation in 4% PFA. However, with this experimental design, most trophoblasts would form syncytia by the end of the 72 hrs, hindering accurate examination of the proliferative effect of NRP-5RG D6A on trophoblasts. […] This allowed analysis of proliferation of mononuclear trophoblasts.
Cell proliferation was evaluated over 24 hrs after seeding 1.3×10^5 cells/cm^2 in culture media (1% serum) treated with 0.05 μM BrdU, NRP-5RG D6A and EGF (FIG. 13).

[3] = test system: experimental autoimmune encephalomyelitis (EAE) induced by MOG; assay: EAE model of multiple sclerosis, therapeutic treatment; format: in vivo, mice, strain C57Bl/6J; settings: score 0-6
[4] = test system: cerebellar microexplants; assay: Cerebellar microexplant survival assay (3-NP/glutamate injury); format: cell-based, Wistar rat; settings: in this particular assay; concentration not given
Protocol: (§1) Laminated cerebellar cortices of the two hemispheres were explanted from a P3, P4, P7 or P8 Wistar rat, cut into small pieces in GBSS with 0.65% D(+)glucose solution, and triturated by a 0.4 mm gauge needle and subsequently pressed through a 125 μm pore size sieve. The obtained microexplants were centrifuged (60×g) 2 times for a medium exchange into serum-free BSA-supplemented START V-medium (Biochrom). Finally, the microexplants were reconstituted in 500 μl STARTV-medium. For culturing, 38 μl of the cell suspension was incubated for 1 hour on a poly-D-lysine-coated cover slip in a 35 mm Petri dish under an atmosphere comprising 5% CO2 in air and 100% humidity at 34° C. Subsequently, the injuring toxins (as described below), NRPs and 1 ml of STARTV-medium were added, and the cultures were evaluated after 2-3 days of culture.
Toxicological and drug administration experiments were designed such that 1/100 parts of toxin and neuroprotective drug were administered simultaneously to the freshly prepared cerebellar microexplants. […]
For statistical analysis of survival, four fields (each field having an area of 0.65 mm^2) of each fixed cerebellar culture with the highest cell densities were chosen, and cells displaying neurite outgrowth were counted (survival assay).

[5] = test system: experimental autoimmune encephalomyelitis (EAE) induced by MOG; assay: EAE model of multiple sclerosis, prophylactic treatment; format: in vivo, mice, strain C57Bl/6J; settings: for average clinical score / incidence of disease / mortality: 14 days from day 5
[6] = test system: cerebellar cells; assay: Cerebellar microexplant proliferation assay (BrdU); format: cell-based, Wistar rat; settings: p<0.01; SEQ ID NO: 1 at 1 pM, SEQ ID NO: 2 at 100 pM
Protocol: as §1
Toxicological and drug administration experiments were designed such that 1/100 parts of toxin and neuroprotective drug were administered simultaneously to the freshly prepared cerebellar microexplants. Glutamate was prepared as a 50 mM stock solution in MilliQ water while 50 mM 3-nitropropionic acid was pH-adjusted (pH 6.8-7.2) in MilliQ water. The concentrations of the oxidative stress inducing toxin, 3-nitropropionic acid (3-NP), and the excitotoxin, glutamate, in the assay were 0.5 mM each. Lyophilized peptides were reconstituted in PBS or 100 μg/ml human transferrin as a 10 μM stock solution. Subsequently, serial dilutions were made. Cerebellar microexplants were cultivated for 48-72 hours at 34° C., 5% CO2 in air and 100% humidity before they were fixed by increasing amounts of paraformaldehyde (0.4%, 1.2%, 3% and 4%—each treatment 2-3 min).
Using the toxins described above, cerebellar explants were exposed for 24 hours, at the beginning of culturing to dilutions of NRP (survival assay) or NRP and 0.1 μM BrdU (proliferation assay). Subsequently, 80% of the medium was changed without addition of new toxins and NRPs. […]
For statistical analysis of proliferation BrdU-positive nuclei were counted. Statistical significance was measured by Student's t-test.

[7] = Pyridoxine-induced peripheral neuropathy: weight loss; format: in vivo, Sprague Dawley rats; settings: 4 μg/kg IP daily days 1 to 10
Protocol: (§2) Adult male Sprague Dawley P50 rats were divided into the vehicle (n=9) and NRP-treated (n=10) groups. The rats were killed with an overdose of sodium pentobarbiturate on the 24 day from the first administration of pyridoxine.
(§3) From day 1, all rats were injected intraperitoneally (IP), twice daily, with 350 mg/kg pyridoxine for 8 consecutive days. Pyridoxine (Sigma) solution for injections was made using the following proportions: 95 mg of pyridoxine and 41 mg sodium bicarbonate in 1 ml of water.
(§4) On days 1 to 10 the vehicle group (n=10) received one daily IP-injection of 24 mM sucrose and the rats in the NRP-treated group (n=10) received 4 μg/kg of NRP-5 segment GG analogue D4A (GRRAAPGRAGG-NH2; SEQ ID NO:2) diluted in 24 mM sucrose. Lyophilised NRP was stored in the presence of sucrose or alternatively in trehalose at room temperature. For every intraperitoneal (i.p.) injection, NRP-5 segment GG analogue D4A was reconstituted to 100 μM peptide concentration containing 0.5M sucrose/trehalose, further diluted with PBS to the actual working solution of 5 μg/ml NRP-5 segment GG analogue D4A (containing 24 mM sucrose). A rat with a body weight of 250 g was injected with 200 μl of the working solution.
Animals are weighed daily during the experimental timeframe of 24 days. According to the study protocol, animals showing weight loss of more than 15% body weight were immediately killed. One of the control animals was sacrificed on day 4 of the pyridoxine treatment (control n=9).

[8] = test system: peripheral neuropathy induced by pyridoxine; assay: Pyridoxine-induced peripheral neuropathy: motor impairment score; format: in vivo, Sprague Dawley rats
Protocol: as §2, §3
On days 1 to 10 the vehicle group (n=10) received one daily IP-injection of 24 mM sucrose and the rats in the NRP-treated group (n=10) received 4 μg/kg of NRP-5 segment GG analogue D4A (GRRAAPGRAGG-NH2; SEQ ID NO:2) diluted in 24 mM sucrose. Lyophilised NRP was stored in the presence of sucrose or alternatively in trehalose at room temperature. […]
Overall motor impairment was analysed by assessing the gait of each rat: 1) on a flat surface and 2) its ability to walk across a wooden beam. […]
If the animal walked with no difficulty whatsoever, it was scored as a “0.” If there appeared to be problems in its gait, it was placed on a raised wooden beam. […]

[9] = test system: peripheral neuropathy induced by pyridoxine; assay: Pyridoxine-induced peripheral neuropathy: hind limb adduction test; format: in vivo, Sprague Dawley rats; settings: end of the study
Protocol: as §2, §3
as §4, with “A rat with a body weight of 250 g was injected with 200 μl of the working solution.” left out
Overall motor movement impairment was analysed by assessing the ability of each rat to adduct (i.e. keep its limbs close to the body) its hind limbs. […] These were scored as “0”. Rats that drew their hind limbs back after a slight delay were scored as “1”. […]

[10] = test system: peripheral neuropathy induced by pyridoxine; assay: Pyridoxine-induced peripheral neuropathy: precision beam walk test; format: in vivo, Sprague Dawley rats; settings: for beam walk score: 7-step walk total score
Protocol: as §2, §3, §4
The precision beam walk test was used to assess the animals' precise coordinated movement on days 13, 17 and 24. Briefly, animals were habituated once daily for 7 days before start of pyridoxine treatment on a 1.5 m long beam (with two longitudinal stripes indicating the median of the beam). On day 0 (one day before pyridoxine/NRP treatment) a baseline of motor behaviour on the beam was videotaped. […] All scores were added for the 7-step walk to receive a total score for one tested animal at a given time point. If the tested rat could only stand on the beam but was unable to not walk it was given the score of 30, and if it was unable to stand on the beam, it was scored as 32.

[11] = 0.2 μg peptide/day (8.33 μg/kg) i.p.

Substance: EGF: epidermal growth factor; proliferation-inducing peptide used as internal/positive control [reference compound]
- trophoblast proliferation in the absence of TNF-alpha injury [1]: stimulated trophoblast proliferation
- rescue of JAr cells from TNF-alpha-induced cytotoxicity ([1]; 2 hours pre-incubation): weak effect
- increase in trophoblast proliferation compared to control [2]: 116.7±44%

Substance: REGRRDAPGRAGG (listed as Homo sapiens) [SEQ ID NO: 3, 13-mer NRP-5 segment RG]
- mean clinical score after treatment ([3]; 0.1 μg peptide/animal (4.16 μg/kg) i.p. daily for 14 days from peak of disease): 1.16
- mean clinical score before treatment ([3]; peak of the disease (day 17 after MOG-immunization)): 2.61

Substance: IGF-1: Neuroprotectant named as comparator in the cerebellar microexplant assay [reference compound]
- rescue values, protection [4]: approximately 20%

Substance: SEPEARRAPGRKGGVVCASLAADW (listed as Mus musculus) [SEQ ID NO: 5, 24-mer NRP-7 SW]
- average clinical score [5, 11]: less than 0.5
- incidence of disease [5, 11]: 7 out of 9
- mortality [5, 11]: No animals died
- clinical score compared to saline control ([5]; from day 12 onwards, 0.2 μg peptide/day i.p.): significant attenuation in clinical score

Substance: GRRAAPGRAGG-NH2 (listed as Homo sapiens) [SEQ ID NO: 2, 11-mer analogue of NRP-5]
- proliferation compared against injured cells without NRP [6]: highly proliferation-inducing
- initial weight loss [7]: 3.7%
- body weight versus vehicle-treated group ([7]; day 8 until day 21): significantly higher
- body weight at the peak of weight loss ([7]; day 10): 96.3+1.2 % of day 1 weight
- motor impairment score ([8]; day 13 (peak of disease), score 0-3, 4 μg/kg IP daily days 1 to 10): 0.60+0.52
- motor impairment outcome ([8]; day 24): recovered
- animals with no sign of hind limb adduction after manual manipulation [9]: 9 out of 10
- hind limb adduction score ([9]; score 0-3, 4 μg/kg IP daily days 1 to 10): 0.10+0.31
- rats that performed the 7-step walk ([10]; day 13): 6 out of 10
- beam walk score ([10]; day 13): 23.50 ± 2.46
- animals that could perform the walk ([10]; day 17): all but one
- beam walk score ([10]; day 17): 21.70 ± 1.43
- beam walk, difference between vehicle and NRP-treated group ([10]; day 24): no longer a significant difference

Substance: GTPGRAEAGGQVSPCLAASCSQAYG (listed as Homo sapiens) [SEQ ID NO: 4, 25-mer NRP-4 GG]
- incidence of disease ([5]; 1 ug peptide/day i.p.): 8 out of 10
- mortality ([5]; 1 ug peptide/day i.p.): 0
- average clinical score ([5]; day 27, 1 ug peptide/day i.p.): 1.0
- disease profile compared to saline control ([5]; from 12 days onwards until day 27, 1 ug peptide/day i.p.): significant attenuation of the disease profile
